The nature of the assay: Luciferase Assay: Using ONE-Glo Luciferase Assay System (Promega Corporation, No. E6110), the luciferase activity of the cells in the wells was measured by a microplate reader (Synergy H1, BioTek Instruments, Inc.) An IC50 value was calculated from the luminescence intensity of each compound concentration, supposing that the luminescence intensity of a group with no addition of the compound and with Wnt-3a stimulation was 100%, and that the luminescence intensity of a group with no addition of the compound and with no Wnt-3a stimulation was 0%. The following applies: Homo sapiens.
In the case of `OCc1nc2cc(Nc3ncc4cccc(O[C@H]5CC[C@@H](O)CC5)c4n3)ccc2[nH]1`, the IC50 result is “in the range around 650 nM”.

`COCc1nc2ccc(Nc3ncc4cccc(O[C@H]5CC[C@@H](O)CC5)c4n3)cc2[nH]1`: the IC50 entry was “in the range around 650 nM”. `Cc1nc2c(C)cc(Nc3ncc4cccc(O[C@H]5CC[C@@H](O)CC5)c4n3)cc2[nH]1`: the IC50 result is “in the range around 650 nM”. As to `Cc1nc2ccc(Nc3ncc4ccc(Br)c(O[C@H]5CC[C@@H](O)CC5)c4n3)cc2[nH]1`, the IC50 result was “in the range around 650 nM”. With `O[C@H]1CC[C@@H](Oc2cccc3cnc(Nc4ccc5ccncc5c4)nc23)CC1`, the IC50 result is “in the range around 2000 nM”. `O[C@H]1CC[C@@H](Oc2cccc3cnc(Nc4ccnc5cc(F)ccc45)nc23)CC1`: the IC50 entry was “in the range around 650 nM”. As for `OCc1n[nH]c2cc(Nc3ncc4ccc(F)c(O[C@H]5CC[C@@H](O)CC5)c4n3)ccc12`, the figure is less than 300 nM. As for `O[C@H]1CC[C@@H](Oc2cccc3cnc(Nc4ccc5nc[nH]c5c4)nc23)CC1`, the figure is less than 300 nM; as for `O[C@H]1CC[C@@H](Oc2cccc3cnc(Nc4ccc5cnccc5c4)nc23)CC1`, “in the range around 650 nM”; as for `Cc1ccc2cnc(Nc3ccc4nc[nH]c4c3)nc2c1O[C@H]1CC[C@@H](O)CC1`, “in the range around 650 nM”. In the case of `O[C@H]1CC[C@@H](Oc2cccc3cnc(Nc4ccc5scnc5c4)nc23)CC1`, the IC50 is less than 300 nM. As for `Cc1cc2nc[nH]c2cc1Nc1ncc2cccc(O[C@H]3CC[C@@H](O)CC3)c2n1`, the entry is “in the range around 650 nM”; as for `O[C@H]1CC[C@@H](Oc2cccc3cnc(Nc4cccc5cnccc45)nc23)CC1`, “in the range around 650 nM”; as for `O[C@H]1CC[C@@H](Oc2cccc3cnc(Nc4ccnc5ccccc45)nc23)CC1`, less than 300 nM. Regarding `OCc1cc(Nc2ncc3cccc(O[C@H]4CC[C@@H](O)CC4)c3n2)cc2[nH]cnc12`, the IC50 was less than 300 nM. For `C[C@H](O)c1nc2ccc(Nc3ncc4cccc(O[C@H]5CC[C@@H](O)CC5)c4n3)cc2[nH]1` the value was “in the range around 650 nM”. Consider `O[C@H]1CC[C@@H](Oc2c(F)ccc3cnc(Nc4ccc5ncccc5c4)nc23)CC1`, for which the IC50 was less than 300 nM. Regarding `O[C@H]1CC[C@@H](Oc2c(F)ccc3cnc(Nc4ccc5ncsc5c4)nc23)CC1`, the IC50 is less than 300 nM.

Turning to `O[C@H]1CC[C@@H](Oc2cccc3cnc(Nc4ccc5ncccc5c4)nc23)CC1`, the IC50 entry was “in the range around 650 nM”. Consider `Cc1ccc2cc(Nc3ncc4cccc(O[C@H]5CC[C@@H](O)CC5)c4n3)ccc2n1`, for which the IC50 result is “in the range around 650 nM”. Regarding `O[C@H]1CC[C@@H](Oc2cc(F)cc3cnc(Nc4ccc5nc[nH]c5c4)nc23)CC1`, the IC50 result was “in the range around 650 nM”.

`COc1ccc2c(Nc3ncc4cccc(O[C@H]5CC[C@@H](O)CC5)c4n3)ccnc2c1`: the IC50 entry is “in the range around 650 nM”. Consider `O[C@H]1CC[C@@H](Oc2cccc3cnc(Nc4ccc5[nH]c(CN6CCCC6)nc5c4)nc23)CC1`, for which the IC50 was less than 300 nM. Turning to `Cc1nc2c(Br)cc(Nc3ncc4cccc(O[C@H]5CC[C@@H](O)CC5)c4n3)cc2[nH]1`, the IC50 result was “in the range around 2000 nM”. With `O[C@H]1CC[C@@H](Oc2c(Br)ccc3cnc(Nc4ccc5nc[nH]c5c4)nc23)CC1`, the IC50 was less than 300 nM. For the molecule `O[C@H]1CC[C@@H](Oc2cccc3cnc(Nc4ccc5nc(C(F)(F)F)[nH]c5c4)nc23)CC1`, the IC50 entry is “in the range around 2000 nM”.

In general, IC50 refers to the midpoint of a concentration-inhibition curve.
